The test system of this assay is HPB-ALL cells. Nature of the assay: Inhibition of CD95-independent apoptosis induced by anti-CXCR4 antibody (12G5) in HPB-ALL cells. The format is cell-based. Particulars: HPB-ALL cells incubated with 250 nM SDF-1α at 37° C. for 30 minutes, then induction with anti-CXCR4 antibody 12G5. On the procedure:
1×10^5 HPB-ALL cells are incubated with 5 μg/ml mouse anti-CD4 antibody (HP2/6) and mouse anti CXCR4 antibody (12G5), respectively, at 37° C. for 15 minutes. Then, the bound antibodies are reacted with sheep anti-mouse antibodies (100 μg/ml, Boehringer). Apoptosis detection is carried out in which an FSC/SSC analysis is run in an FACScan cytometer at various times (cf. FIG. 1). HPB-ALL cells are incubated with 250 nM SDF-1α at 37° C. for 30 minutes. The cells are then subjected to an apoptosis induction using the mouse anti-CXCR4 antibody (12G5), as described above under item I. (a).

On to SDF-1α, for which the “Prevention of induction of CD95-independent apoptosis” value is listed as “can be prevented”.

(Values after US6485929B1, “Method for inhibiting CD95-independent apoptosis in AIDS” (Deutsches Krebsforschungzentrum Stiftung des offentlichen …, priority 1998, dated 2002).)
